Test results as given in US8871735B2, “Methods and compositions for providing cardiac protection” (University of Medicine and Dentistry of New Jersey, priority 2008, dated 2014).
“Also recorded” adds a separate entry of the source.

How the values were obtained:
[1] = tested on: C57Bl/6 mice, chronic ISO infusion; experiment: Chronic ISO infusion heart failure model; format: in vivo, mouse
Text: (§1) ISO with or without AC5 inhibitors were chronically infused with osmotic mini-pump implanted subcutaneously at indicated doses for 1 week in c57Bl/6 mice. Mice were then subjected to echocardiography (a) and the hearts were removed and subjected to pathological examinations such as myocardial apoptosis (b) and fibrosis (c). n=4-8.
(§2) In C57Bl/6 mice, ISO with or without AC5 inhibitors or metoprolol were chronically infused with an osmotic mini-pump at the indicated doses for 1 week. Mice were then subjected to echocardiography (a) and heart tissue were subjected to a myocardial apoptosis assay (b). *, p<0.01 vs vehicle. #, p<0.05 vs vehicle. .dagger., p<0.01 vs ISO. .dagger-dbl., p<0.05 vs ISO. n=4-15. […] Comparisons between multiple groups were made using ANOVA with post-hoc tests.
Tenofovir diphosphate (PMPA-PP), zidovudine monophosphate (MP), zidovudine diphosphate (PP), zidovudine triphosphate (TP), famciclovir penciclovir and valaciclovir were purchased from Moravek. Formycin A (FMA) and Formycin B (FMB) were purchased from Berry and Associates. All other reagents were from Sigma unless specified. Long-term infusion of isoproterenol (Sigma, St. Louis, Mo.) was performed for 7 days at a dose of 60 mg/kg/d with or without AC5 inhibitors by using a miniosmotic pump (ALZET model 2001, DURECT Corp, Cupertino, Calif.). Control mice received vehicle in pumps. Pumps were removed 24 hours before biochemical and physiological studies. Experiments were performed in 3- to 5-month-old male C57Bl/6, and in AC5Tg transgenic mice. This study was approved by the Animal Care and Use Committee at New Jersey Medical School.
(§3) Mice were anesthetized with 2.5% tribromoethanol (0.010 to 0.015 mL per gram of body weight) injected intraperitoneally, and echocardiography was performed with ultrasonography (ACUSON Sequoia C256, Siemens Medical Solutions, Malvern, Pa.). For acute injection of isoproterenol, forskolin and milrinon, a PE-10 catheter was inserted into the right jugular vein, and drugs were injected at the rate of 1 μl/s. cAMP accumulation assay in H9C2 cells, a cardiac myoblast cell line, was examined as previously described.

[2] = tested on: mice; experiment: Basal cardiac function (echocardiography) under chronic drug infusion alone; format: in vivo, mouse; settings: chronic infusion of drug alone (3 days to 1 week)
Text: as §1, §2
as §3, with “described. […]” for “described.”

[3] = administration of 15 mg/kg/day; read-out: plasma Cmax; cited from earlier work

Which “ISO-induced decrease in LVEF (and FS)” value ([1]; ISO 60 mg/kg/d 7 days, Ara-Ade 20 and 100 mg/kg/day, 2′5′ ddAdo 20 mg/kg/day) does the source give for Nc1ncnc2c1ncn2[C@@H]1O[C@H](CO)[C@@H](O)[C@@H]1O [Ara-Ade, 9-β-D-arabinofuranosyladenine] here?
The value was “rescued LVEF and FS reduction”.

And the ISO-induced cardiac fibrosis ([1]; chronic ISO infusion)?
Its ISO-induced cardiac fibrosis is “significantly inhibited”.

And the “ISO-induced myocardial apoptosis in vivo” value ([1]; chronic ISO infusion)?
Its value is “significantly inhibited”.

What about the “ISO-induced wall thickening (DESP, DPW)” value ([1]; chronic ISO infusion) of the same molecule?
The value was “neither Ara-Ade nor 2′5′ ddAdo inhibited”.

And the “LVW/BW and myocyte cross sectional area” value ([1]; chronic ISO infusion)?
Its value is “increased”.

And the “survival rate during 1-week chronic ISO” value ([1]; vs vehicle)?
The value was “higher”.

And the “basal LVEF” value [2]?
Its value is “did not change LVEF; also recorded: did not affect basal LVEF”.

What about the Cmax [3] of the same molecule?
Its Cmax is ~10 µM.
